One assay relates to Desmondesmus subspicatus. As to the kind of experiment: Fresh water algal growth inhibition test (OECD 201). It is filed as cell-based. The following applies: isolated, purified component from Example 3; read-out: Fresh Water algal growth inhibition test with Desmondesmus subspicatus ErC50/0-3. An excerpt: Aquatic Toxicity procedures and test methods are based on the recommendations of the following guidelines: Organization for Economic Cooperation and Development (OECD): OECD Guidelines for the Testing of Chemicals, “Freshwater Alga and Cyanobacteria, Growth Inhibition Test”, Procedure 201, adopted 23 Mar. 2006; European Economic Community (EEC): Commission directive 92/69/EEC of 31 Jul. 1992, Methods for the determination of ecotoxicity, C.3., “Algal Inhibition Test”. Preferably the surfactants of the present invention have a toxicity profile (EC50)>1 and </=10 mg/l; more preferably an EC50>10 and </=100 mg/l; and most preferably an EC50>100 mg/l.
The study procedures and test methods for aquatic toxicity are based on the recommendations of the following guidelines: Organization for Economic Cooperation and Development (OECD): OECD Guidelines for the Testing of Chemicals, “Freshwater Alga and Cyanobacteria, Growth Inhibition Test”, Procedure 201, adopted 23 Mar. 2006; European Economic Community (EEC): Commission directive 92/69/EEC of 31 Jul. 1992, Methods for the determination of ecotoxicity, C.3., “Algal Inhibition Test”.
Data from the aquatic toxicity tests of the isolated and purified C12 monosulfonate (sodium 2-(dodecanyloxy)-3-hydroxypropane-1-sulfonate) and C12 disulfonate (sodium 2-(dodecanyloxy)propane-1,3-disulfonate) from Example 3 is shown in Table 2. […]

The test system of a further assay is Daphna magna. As to the kind of experiment: 48-hour acute toxicity to Daphna magna. It is filed as in vivo. The note with it: isolated, purified component from Example 3.

Take `CCCCCCCCCCCCOC(CS(=O)(=O)[O-])CS(=O)(=O)[O-].[Na+].[Na+]` [C12 disulfonate component, sodium 2-(dodecanyloxy)propane-1,3-disulfonate]: the EC50 in the assay with Desmondesmus subspicatus and in the assay with Daphna magna was more than 100 µg/mL each time.

On to `CCCCCCCCCCCCOC(CO)CS(=O)(=O)[O-].[Na+]` (stereo not shown) [C12 monosulfate component, sodium 2-(dodecanyloxy)-3-hydroxypropane-1-sulfonate], for which the EC50 with Desmondesmus subspicatus and in the assay on Daphna magna was more than 100 µg/mL throughout.

For the origin of these results see patent US20160083643A1, “ENHANCED OIL RECOVERY METHOD EMPLOYING A BIODEGRADABLE BRINE TOLERANT FOAM-FORMING COMPOSITION” (DOW GLOBAL TECHNOLOGIES LLC, priority 2013, published 2016).
